We go through 2 compounds from ChEMBL document CHEMBL4814014, “Identification of novel androgen receptor degrading agents to treat advanced prostate cancer” (Eur J Med Chem, 2021).

One assay concerns DU-145. In words: Antiproliferative activity against AR-negative human DU145 cells assessed as reduction in cell viability incubated for 3 days by MTT assay. The settings on record: DU-145, 72 h.
A further assay concerns CWR22R. Description: Antiproliferative activity against AR-positive human 22RV1 cells assessed as reduction in cell viability incubated for 3 days by MTT assay. The settings on record: 22Rv1, 72 h.
The next assay relates to LNCaP. In words: Antiproliferative activity against AR-positive human LNCaP cells assessed as reduction in cell viability incubated for 3 days by MTT assay. The settings on record: 72 h. For orientation: Formazan colour is commonly taken as a measure of viable cells.

For orientation: IC50 means the concentration that inhibits the measured activity by half. With `C=CC(=O)Nc1ccc(-c2cc(=O)c3c(O)cc(OC)c(OC(C)C)c3o2)cc1`, the figures for the IC50 in the assay on DU-145, in the assay with CWR22R and in the assay on LNCaP were 14.7 µM, 5.8 µM and 15.1 µM, respectively.

As for `CNC(=O)c1ccc(N2C(=S)N(c3ccc(C#N)c(C(F)(F)F)c3)C(=O)C2(C)C)cc1F` [ENZALUTAMIDE], the half-inhibitory concentration (IC50) with DU-145 came out at 45.3 µM; in the assay on CWR22R, 42.3 µM; in the assay on LNCaP, 17.6 µM.
